Experimental data reported in patent US20240116921A1, “LACTAM (HETERO)[…] DERIVATIVES AS INHIBITORS OF ERBB2” (EnLiven Therapeutics, Inc., priority 2020, published 2024).
Counter-ions that a name gives are not always drawn.

Key:
[1] = biological target: T1, phosphorylated EGFR (pEGFR) (Homo sapiens, UniProt P00533); assay: Detection of phosphorylated EGFR (pEGFR) in EGF-stimulated A431 cells; format: cell-based; settings: A431 cells (10% FBS), 4 hours incubation, EGF 30 ng/mL 10 minutes, AlphaLISA
T1 construct: performed to measure phosphorylated EGFR levels using A431 cells (10% FBS); endogenous in cells; host or cells: A431
Outline: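 AlphaLISA read-out of EGFR phosphorylation after a 10-min EGF pulse (30 ng/mL final). A431 cells (10% FBS) had been exposed to compound for 4 h at 37 °C. IC50 was fitted from % inhibition normalised to DMSO and staurosporine control lysates.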

[2] = biological target: T2, phosphorylated ERBB2 (pERBB2) (Homo sapiens, UniProt P04626); assay: Detection of phosphorylated ERBB2 (pERBB2) by ELISA in BT-474 cells; format: cell-based; settings: four hours incubation
T2 construct: endogenous in cells; host or cells: BT-474
Outline: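 Phospho-ERBB2 in lysates was quantified by sandwich ELISA (A450, TMB) after 4 h compound exposure at 37 °C of BT-474 cells seeded at 2.0×10^4 per well. Compounds tested at 10 µM to 0.01 nM final in four-fold steps; activity normalized to DMSO (0.1%) high and cell-free low controls.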

[3] = biological target: Ba/F3 ERBB2 A775_G776insYVMA (Homo sapiens, UniProt P04626, DUP772-775, cells depend on it); assay: Cell viability assay, Ba/F3 ERBB2 A775_G776insYVMA; format: cell-based, mouse; settings: Ba/F3 ERBB2 YVMA cells, cell viability, 72 hours, CellTiter Glo; Table B5; read-out: Ba/F3 ERBB2 YVMA, IC50
Outline: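 Viability after 72 h compound treatment (37 °C, 5% CO2) was quantified by CellTiter-Glo luminescence of intracellular ATP, with sigmoidal dose-response fitting. Cells were retrovirally engineered Ba/F3 lines whose growth depends on the mutant human ERBB2 in place of IL-3, plated at 3000 per well.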

T2 sequence (P04626 23-1255): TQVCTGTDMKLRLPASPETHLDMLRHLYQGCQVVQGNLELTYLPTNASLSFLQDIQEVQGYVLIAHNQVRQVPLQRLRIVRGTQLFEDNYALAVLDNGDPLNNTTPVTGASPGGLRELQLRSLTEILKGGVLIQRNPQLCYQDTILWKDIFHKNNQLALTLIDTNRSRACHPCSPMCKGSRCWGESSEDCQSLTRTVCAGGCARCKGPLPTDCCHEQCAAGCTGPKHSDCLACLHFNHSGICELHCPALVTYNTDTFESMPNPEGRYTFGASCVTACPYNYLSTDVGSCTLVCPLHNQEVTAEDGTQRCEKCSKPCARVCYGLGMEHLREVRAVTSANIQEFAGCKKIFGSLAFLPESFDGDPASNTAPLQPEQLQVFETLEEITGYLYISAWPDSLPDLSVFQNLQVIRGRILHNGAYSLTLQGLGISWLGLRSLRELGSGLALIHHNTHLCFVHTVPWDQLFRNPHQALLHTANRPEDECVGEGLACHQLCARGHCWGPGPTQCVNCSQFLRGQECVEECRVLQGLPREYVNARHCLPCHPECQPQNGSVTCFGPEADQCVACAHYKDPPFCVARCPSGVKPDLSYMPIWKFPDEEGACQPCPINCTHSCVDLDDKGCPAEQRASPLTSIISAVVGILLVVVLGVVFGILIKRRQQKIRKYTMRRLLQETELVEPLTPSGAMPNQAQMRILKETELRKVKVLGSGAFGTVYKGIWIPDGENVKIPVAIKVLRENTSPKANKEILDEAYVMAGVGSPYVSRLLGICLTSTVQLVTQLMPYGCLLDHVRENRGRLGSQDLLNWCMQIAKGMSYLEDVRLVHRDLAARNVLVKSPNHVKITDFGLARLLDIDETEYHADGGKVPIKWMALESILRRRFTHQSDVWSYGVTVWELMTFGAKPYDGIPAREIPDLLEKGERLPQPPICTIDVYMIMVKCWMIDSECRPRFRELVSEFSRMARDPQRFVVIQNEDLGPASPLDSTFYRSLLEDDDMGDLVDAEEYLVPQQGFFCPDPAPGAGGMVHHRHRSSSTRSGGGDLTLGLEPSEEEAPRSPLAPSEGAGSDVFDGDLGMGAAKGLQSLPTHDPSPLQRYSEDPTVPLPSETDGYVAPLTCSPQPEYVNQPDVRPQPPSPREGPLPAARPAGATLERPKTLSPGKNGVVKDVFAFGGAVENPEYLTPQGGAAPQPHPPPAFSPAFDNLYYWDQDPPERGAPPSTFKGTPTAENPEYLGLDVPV
Chain of Ba/F3 ERBB2 A775_G776insYVMA (P04626 with tags, fused parts or gaps DUP772-775): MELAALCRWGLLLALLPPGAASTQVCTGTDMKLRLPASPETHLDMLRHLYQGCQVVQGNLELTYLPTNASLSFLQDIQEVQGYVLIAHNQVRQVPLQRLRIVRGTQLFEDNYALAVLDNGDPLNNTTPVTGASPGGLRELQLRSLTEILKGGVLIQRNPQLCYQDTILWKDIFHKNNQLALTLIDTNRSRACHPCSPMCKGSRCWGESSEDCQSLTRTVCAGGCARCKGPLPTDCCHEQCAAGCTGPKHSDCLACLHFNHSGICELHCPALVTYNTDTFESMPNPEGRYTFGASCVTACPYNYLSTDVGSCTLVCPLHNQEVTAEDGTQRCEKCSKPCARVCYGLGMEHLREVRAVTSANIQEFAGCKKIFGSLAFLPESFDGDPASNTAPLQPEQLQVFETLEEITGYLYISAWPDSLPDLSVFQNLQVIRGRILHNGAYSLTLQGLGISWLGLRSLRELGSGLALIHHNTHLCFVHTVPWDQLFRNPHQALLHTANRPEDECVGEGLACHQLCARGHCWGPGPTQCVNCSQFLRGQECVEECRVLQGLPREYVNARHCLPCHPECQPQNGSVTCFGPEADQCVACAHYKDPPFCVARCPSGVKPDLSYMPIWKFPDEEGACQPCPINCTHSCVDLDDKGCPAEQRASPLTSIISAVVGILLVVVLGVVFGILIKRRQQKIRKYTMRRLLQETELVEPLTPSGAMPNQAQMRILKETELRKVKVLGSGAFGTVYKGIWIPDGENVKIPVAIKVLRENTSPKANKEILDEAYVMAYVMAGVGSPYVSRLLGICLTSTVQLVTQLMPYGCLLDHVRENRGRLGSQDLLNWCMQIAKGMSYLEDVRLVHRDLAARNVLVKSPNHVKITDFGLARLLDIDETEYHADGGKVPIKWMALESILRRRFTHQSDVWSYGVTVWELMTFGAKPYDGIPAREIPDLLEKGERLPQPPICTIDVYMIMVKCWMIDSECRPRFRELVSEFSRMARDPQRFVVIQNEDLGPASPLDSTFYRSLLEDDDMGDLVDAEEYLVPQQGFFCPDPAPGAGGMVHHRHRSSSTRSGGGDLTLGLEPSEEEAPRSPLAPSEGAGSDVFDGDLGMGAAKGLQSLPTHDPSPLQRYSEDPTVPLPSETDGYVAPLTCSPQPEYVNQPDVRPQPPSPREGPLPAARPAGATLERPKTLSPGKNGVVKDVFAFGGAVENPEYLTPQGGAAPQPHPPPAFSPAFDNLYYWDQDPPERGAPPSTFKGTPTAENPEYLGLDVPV
T1 sequence (P00533 25-1210): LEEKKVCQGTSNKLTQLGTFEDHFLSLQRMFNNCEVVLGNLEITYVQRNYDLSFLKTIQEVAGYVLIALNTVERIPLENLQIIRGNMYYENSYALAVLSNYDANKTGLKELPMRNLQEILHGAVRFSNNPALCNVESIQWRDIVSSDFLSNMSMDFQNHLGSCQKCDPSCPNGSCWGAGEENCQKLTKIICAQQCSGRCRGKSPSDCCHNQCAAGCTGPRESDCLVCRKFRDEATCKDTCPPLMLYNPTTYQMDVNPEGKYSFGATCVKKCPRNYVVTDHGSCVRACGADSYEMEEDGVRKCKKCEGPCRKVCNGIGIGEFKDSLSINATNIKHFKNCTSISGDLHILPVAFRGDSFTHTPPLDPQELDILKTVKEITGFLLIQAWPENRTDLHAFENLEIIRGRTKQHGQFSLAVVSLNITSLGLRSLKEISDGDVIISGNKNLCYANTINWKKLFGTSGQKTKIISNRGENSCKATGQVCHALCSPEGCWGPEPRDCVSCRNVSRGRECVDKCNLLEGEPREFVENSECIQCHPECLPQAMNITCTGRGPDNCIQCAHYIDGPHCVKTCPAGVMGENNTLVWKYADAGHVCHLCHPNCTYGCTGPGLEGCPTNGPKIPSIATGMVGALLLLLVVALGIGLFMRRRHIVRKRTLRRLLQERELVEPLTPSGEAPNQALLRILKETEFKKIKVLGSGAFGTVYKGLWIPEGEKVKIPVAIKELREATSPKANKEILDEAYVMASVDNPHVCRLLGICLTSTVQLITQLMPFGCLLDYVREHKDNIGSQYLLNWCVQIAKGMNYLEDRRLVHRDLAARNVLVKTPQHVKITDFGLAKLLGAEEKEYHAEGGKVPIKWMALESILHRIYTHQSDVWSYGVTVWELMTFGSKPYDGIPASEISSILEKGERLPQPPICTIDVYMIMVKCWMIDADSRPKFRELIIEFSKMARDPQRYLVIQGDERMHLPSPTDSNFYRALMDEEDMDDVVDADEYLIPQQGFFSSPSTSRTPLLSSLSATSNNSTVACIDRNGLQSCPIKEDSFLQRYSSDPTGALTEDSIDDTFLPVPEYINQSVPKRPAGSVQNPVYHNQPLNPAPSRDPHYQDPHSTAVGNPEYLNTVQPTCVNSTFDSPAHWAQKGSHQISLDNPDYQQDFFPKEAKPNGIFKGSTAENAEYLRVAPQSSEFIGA

| Compound | IC50 [1] [nM] | IC50 [2] [nM] | GI50 [3] [nM] |
| --- | --- | --- | --- |
| Cc1cc(Nc2ncnc3ccc(N4CC/C(=C\CN(C)C)C4=O)nc23)ccc1Oc1ccn2ccnc2c1 [Compound 71, (3E)-3-[2-(dimethylamino)ethylidene]-1-{4-[(4-{imidazo[1,2-a]pyridin-7-yloxy}-3-methylphenyl)amino]pyrido[3,2-d]pyrimidin-6-yl}pyrrolidin-2-one] | 273 | 25.7 | 2.56 |
| C=C1CCN(c2ccc3ncnc(Nc4ccc(Oc5ccc6cncnc6c5)c(C)c4)c3c2)C1=O [Compound 50, 1-(4-{[3-methyl-4-(quinazolin-7-yloxy)phenyl]amino}quinazolin-6-yl)-3-methylidenepyrrolidin-2-one] | 2150 | 80.1 | 46.4 |
| Cc1cc(Nc2ncnc3cnc(N4CC/C(=C\CN(C)C)C4=O)cc23)c(F)cc1Oc1ccc2c(c1)ncn2C [Compound 76, (3E)-3-[2-(dimethylamino)ethylidene]-1-[4-({2-fluoro-5-methyl-4-[(1-methyl-1,3-benzodiazol-5-yl)oxy]phenyl}amino)pyrido[3,4-d]pyrimidin-6-yl]pyrrolidin-2-one] | > 10000 | > 10000 | > 500 |
| C=C1C(=O)N(c2ccc3ncnc(Nc4ccc(Oc5ccn6ncnc6c5)c(C)c4)c3c2)CC1CN(C)C (stereo not drawn) [Compound 30, 4-[(dimethylamino)methyl]-1-{4-[(3-methyl-4-{[1,2,4]triazolo [1,5-a]pyridin-7-yloxy}phenyl)amino]quinazolin-6-yl}-3-methylidenepyrrolidin-2-one; formic acid] | 68.4 | 12.3 | 17.4 |
| Cc1cc(Nc2ncnc3ccc(N4CC/C(=C\CN(C)C)C4=O)nc23)c(F)cc1Oc1ccn2ncnc2c1 [Compound 79, (3E)-3-[2-(dimethylamino)ethylidene]-1-{4-[(2-fluoro-5-methyl-4-{[1,2,4]triazolo[1,5-a]pyridin-7-yloxy}phenyl)amino]pyrido[3,2-d]pyrimidin-6-yl}pyrrolidin-2-one] | > 10000 | 8.77 | 2.92 |
| Cc1cc(Nc2ncnc3ccc(N4CC/C(=C\[C@H](C)N(C)C)C4=O)nc23)ccc1Oc1ccn2ncnc2c1 [Compound 113, (S,E)-1-(4-((4-([1,2,4]triazolo[1,5-a]pyridin-7-yloxy)-3-methylphenyl)amino)pyrido[3,2-d]pyrimidin-6-yl)-3-(2-(dimethylamino)propylidene)pyrrolidin-2-one] | > 10000 | 327 | > 500 |
| Cc1cc(Nc2ncnc3ccc(N4CC/C(=C/CN(C)C)C4=O)nc23)ccc1Oc1ccc2c(c1)ncn2C [Compound 83, (Z)-3-(2-(dimethylamino)ethylidene)-1-(4-((3-methyl-4-((1-methyl-1H-benzo[d]imidazol-5-yl)oxy)phenyl)amino)pyrido[3,2-d]pyrimidin-6-yl)pyrrolidin-2-one] | 6030 | 44.2 | 4.73 |
| Cc1cc(Nc2ncnc3cnc(N4CC/C(=C\CN(C)C)C4=O)cc23)ccc1Oc1cccnc1 [Compound 80, (3E)-3-[2-(dimethylamino)ethylidene]-1-(4-{[3-methyl-4-(pyridin-3-yloxy)phenyl]amino}pyrido[3,4-d]pyrimidin-6-yl)pyrrolidin-2-one] | 704 | 66.1 | 35.5 |
| C=C1C(=O)N(c2cc3c(Nc4ccc(Oc5ccn6ncnc6c5)c(C)c4)ncnc3cn2)C[C@@H]1C [Compound 31] | 117 | 15.9 | 3.78 |
| Cc1cc(Nc2ncnc3cnc(N4CC/C(=C\CN(C)C)C4=O)cc23)ccc1Oc1ccn2c(C)cnc2c1 [Compound 82, (3E)-3-[2-(dimethylamino)ethylidene]-1-(4-{[3-methyl-4-({3-methylimidazo[1,2-a]pyridin-7-yl}oxy)phenyl]amino}pyrido[3,4-d]pyrimidin-6-yl)pyrrolidin-2-one] | 3990 | 54.1 | 6.39 |
| Cc1cc(Nc2ncnc3ccc(N4CC/C(=C\CCN(C)C)C4=O)cc23)ccc1Oc1ccc2c(c1)ncn2C [Compound 44, (3E)-3-[3-(dimethylamino)propylidene]-1-[4-({3-methyl-4-[(1-methyl-1,3-benzodiazol-5-yl)oxy]phenyl}amino)quinazolin-6-yl]pyrrolidin-2-one] | 1940 | 26.2 | 14.5 |
| CN(C)C/C=C1\CCN(c2ccc3ncnc(Nc4ccc(Oc5ccc6c(c5)ncn6C)cc4F)c3n2)C1=O [Compound 99, (3E)-3-[2-(dimethylamino)ethylidene]-1-[4-({2-fluoro-4-[(1-methyl-1,3-benzodiazol-5-yl)oxy]phenyl}amino)pyrido[3,2-d]pyrimidin-6-yl]pyrrolidin-2-one] | > 10000 | 38.8 | 6.64 |
| Cc1cc(Nc2ncnc3ccc(N4CC/C(=C\[C@@H](C)N(C)C)C4=O)nc23)ccc1Oc1ccn2ncnc2c1 [Compound 114, (R,E)-1-(4-((4-([1,2,4]triazolo[1,5-a]pyridin-7-yloxy)-3-methylphenyl)amino)pyrido[3,2-d]pyrimidin-6-yl)-3-(2-(dimethylamino)propylidene)pyrrolidin-2-one] | > 10000 | 31.1 | 24.3 |
| Cc1cc(Nc2ncnc3ccc(N4CC/C(=C\CCN(C)C)C4=O)nc23)ccc1Oc1ccn2ncnc2c1 [Compound 48, (3E)-3-[3-(dimethylamino)propylidene]-1-{4-[(3-methyl-4-{[1,2,4]triazolo[1,5-a]pyridin-7-yloxy}phenyl)amino]pyrido[3,2-d]pyrimidin-6-yl}pyrrolidin-2-one] | 63.5 | 12.4 | 0.837 |

The next lines start with results.

| IC50 [1] [nM] | IC50 [2] [nM] | Compound | GI50 [3] [nM] |
| --- | --- | --- | --- |
| 187 | 40.6 | Cc1cc(Nc2ncnc3ccc(N4CC/C(=C\CN(C)C)C4=O)nc23)ccc1Oc1cncc(F)c1 [Compound 130, (3E)-3-[2-(dimethylamino)ethylidene]-1-[4-({4-[(5-fluoropyridin-3-yl)oxy]-3-methylphenyl}amino)pyrido[3,2-d]pyrimidin-6-yl]pyrrolidin-2-one] | 17.8 |
| > 10000 | 44.2 | Cc1cc(Nc2ncnc3ccc(N4CC(C)/C(=C\CN(C)C)C4=O)nc23)ccc1Oc1ccc2c(c1)ncn2C (single isomer, unassigned; enantiomer 2) [Example S58, Enantiomer # 2, (3E)-3-[2-(dimethylamino)ethylidene]-4-methyl-1-[4-({3-methyl-4-[(1-methyl-1,3-benzodiazol-5-yl)oxy]phenyl}amino)pyrido[3,2-d]pyrimidin-6-yl]pyrrolidin-2-one hydrochloride Enantiomer 2] | 13.3 |
| 490 | 21 | Cc1cc(Nc2ncnc3cnc(N4CC(C)C(=CCN(C)C)C4=O)cc23)ccc1Oc1ccc2c(c1)ncn2C (single isomer, unassigned) [Example S97, Enantiomer #2, 3-[2-(dimethylamino)ethylidene]-4-methyl-1-[4-({3-methyl-4-[(1-methyl-1,3-benzodiazol-5-yl)oxy]phenyl}amino)pyrido[3,4-d]pyrimidin-6-yl]pyrrolidin-2-one] | 4.12 |
| > 10000 | 23.8 | CN(C)C/C=C1\CCN(c2ccc3ncnc(Nc4cc(F)c(Oc5ccn6ncnc6c5)cc4F)c3n2)C1=O [Compound 141, (E)-1-(4-((4-([1,2,4]triazolo[1,5-a]pyridin-7-yloxy)-2,5-difluorophenyl)amino)pyrido[3,2-d]pyrimidin-6-yl)-3-(2-(dimethylamino)ethylidene)pyrrolidin-2-one] | 28.5 |
| 177 | 10.3 | Cc1cc(Nc2ncnc3ccc(N4CC/C(=C\CN(C)C)C4=O)nc23)ccc1Oc1ccc2[nH]cnc2c1 [Compound 118, (3E)-1-(4-{[4-(1H-1,3-benzodiazol-5-yloxy)-3-methylphenyl]amino}pyrido[3,2-d]pyrimidin-6-yl)-3-[2-(dimethylamino)ethylidene]pyrrolidin-2-one] | 1.55 |
| 520 | 24.9 | C=C1C(=O)N(c2ccc3ncnc(Nc4ccc(Oc5ccc6c(c5)ncn6C)c(C)c4)c3c2)C2CC12 (single isomer, unassigned) [Example S33, Enantiomer # 2, 2-[4-({3-methyl-4-[(1-methyl-1,3-benzodiazol-5-yl)oxy]phenyl}amino)quinazolin-6-yl]-4-methylidene-2-azabicyclo[3.1.0]hexan-3-one] | 7.6 |
| 968 | 40 | CC1CN(c2cc3c(Nc4ccc(Oc5ccc6c(c5)nnn6C)c(F)c4)ncnc3cn2)C(=O)/C1=C/CN(C)C (single isomer, unassigned) [Example S117, Enantiomer #1, (E)-3-(2-(dimethylamino)ethylidene)-1-(4-((3-fluoro-4-((1-methyl-1H-benzo[d][1,2,3]triazol-5-yl)oxy)phenyl)amino)pyrido[3,4-d]pyrimidin-6-yl)-4-methylpyrrolidin-2-one] | 12 |
